Measured values from article PMC9356275, “A quantitative high-throughput screen identifies compounds that lower expression of the SCA2-and ALS-associated gene ATXN2” (The Journal of Biological Chemistry, 2022).
Read-outs that look alike come from different tables or passages of the source.

Tests used:
Assay type in all cases: cell-based, human
[1] = tested on: ATXN2-luc; assay: MSSR hit retest / multiconcentration testing: ATXN2-luc luciferase assay in H2 cells (1 and 10 μM); settings: for H2&S1 ave luc 1uM: 1 uM compound; for H2&S1 ave luc 10uM: 10 uM compound
[2] = tested on: H2 and S1 cells; assay: Paired MTT viability assay, average of H2 and S1 cells (1 and 10 uM); set-up: H2&S1 ave MTT 1uM / H2&S1 ave MTT 10uM: unit not given here; settings: for viability at 1 µM / viability at 10 µM: Homo sapiens
From the text: (§1) Supplement mmc2.xlsx, sheet "43 annotated compounds"

[3] = tested on: ATXN2-luc; assay: MSSR pilot screen: ATXN2-luc luciferase assay (Bright-Glo) in H2 cells, single 10 μM dose; settings: for SD from mean (ATXN2-luc, Z-score): H2 cells, single dose (title: 10 μM compound), overnight; for ¦Score/1SD¦: absolute score divided by 1SD (0.891 or 0.9)
[4] = tested on: ATXN2-luc; assay: MSSR hit retest: ATXN2-luc luciferase assay, average of H2 and S1 cells (1 and 10 uM); set-up: H2&S1 ave luc 1uM / H2&S1 ave luc 10uM: scale not given here; settings: for activity at 1 µM / activity at 10 µM / activity: Homo sapiens; for activity at 1 µM: read-out: H2&S1 ave luc 1uM; for activity at 10 µM / H2&S1 ave luc 10uM: head line r3 10uM; for activity at 10 µM / activity: read-out: H2&S1 ave luc 10uM; for H2&S1 ave luc 10uM: head line r4 20 uM compound
From the text: as §1

[5] = tested on: ATXN2-luc; assay: NCATS qHTS (LOPAC pilot, primary and confirmation): ATXN2-luc in S2 cells, 1536-well, Steady-Glo; settings: LOPAC library screening optimization; for AC50: Homo sapiens
Method: We next performed a pilot screen assay to optimize the 1536-well qHTS using S2 cells. […] Cytotoxicity was determined using a multiplexed viability assay (CellTiter-Fluor, a fluorescence-based viability assay using Gly-Phe-7-amino-4-trifluoromethylcoumarin substrate).
CellTiter-Fluor was used to determine compound effect on cell viability, and Steady-Glo was used to measure luciferase in a multiplexed assay.
The primary assay was conducted at the NCATS NIH Chemical Genomics Center laboratory. About 4 μl of S2 cell suspension in phenol red–free DMEM was dispensed into wells of 1536-well assay plates. […] Next, SteadyGlo luciferase substrate detection reagent (3 μl) was added to each well and incubated for an additional 5 min at room temperature. Luminescence was then measured on the ViewLux imager equipped with clear filters using a 2 s exposure. All screening operations were performed on a fully integrated robotic system (Kalypsys) containing one RX-130 and two RX-90 anthropomorphic robotic arms (Stäubli). Vehicle-only plates, with DMSO being pin-transferred to columns 5 to 48, were inserted uniformly at the beginning and the end of each library in order to monitor and record any shifts in assay performance.

[6] = tested on: ATXN2-luc; assay: Secondary assays: ATXN2-luc in S2 and H2 cells, 12 doses, Bright-Glo; settings: summary data
Method: The values for H2 and S2 were used as replicates to calculate IC50s and to assess cell viability.
(§2) Compounds were plated at 2× concentrations in phenol red–free DMEM in 25 μl in 384-well plates with each compound dose plated in triplicate. An equal volume of S2, H2, or SC cells (24,000 cells/well) suspended in phenol red–free DMEM with 10% fetal bovine serum and 1× penicillin/streptomycin were added. Cells were grown 24 h and then assayed first by using the CellTiter-Fluor reagent (20 μl) followed by the addition of Bright-Glo (65 μl) luciferase assay, using a multimode plate reader (Beckman; DT880). Values were reported as the mean ± SD with n = 3. IC50s were determined by the Hill coefficient method using an online tool (https://www.aatbio.com/tools/ic50-calculator).

[7] = tested on: CMV-luc; assay: Secondary assays: CMV-luc in SC cells, Bright-Glo; settings: minimum CMV-luc signal in SC cells over 12 doses; summary data
Method: as §2

[8] = luciferase, average of H2 and S1 cells expressing ATXN2-luc, rescreen
[9] = 1 uM compound, read-out: H2&S1 ave MTT 1uM
[10] = 10 uM compound, read-out: H2&S1 ave MTT 10uM
[11] = pilot screen at 10 µM compound, H2 cells expressing ATXN2-luc
[12] = 1 uM compound, average of H2 and S1 cells
[13] = read-out: H2&S1 ave MTT 1uM, 1 uM compound
[14] = read-out: H2&S1 ave MTT 10uM, 10 uM compound
[15] = pilot screen, H2 cells expressing ATXN2-luc, single dose printed as 10 μM compound

SMILES	H2&S1 ave luc 1uM [1, 8]	SD from mean (ATXN2-luc, Z-score) [3]	SD from mean (pilot screen) ([3]; pilot screen)	SD from mean (pilot screen) [3, 11]	¦Score/1SD¦ ([3]; pilot screen)	viability at 1 µM [2, 13]	viability at 10 µM [2, 14]	SD from mean (pilot screen) [3, 15]	activity at 1 µM [4]	activity [4]	further results
CC(N/C(=N\C#N)Nc1ccncc1)C(C)(C)C (centres unmarked)	117	-4.875 SD	-4.875 SD	-4.875	5.47						viability at 1 µM [2, 9]: 107%; viability at 10 µM [2, 10]: 51.5%; activity at 1 µM [4, 12]: 117%; activity at 10 µM ([4]; average of H2 and S1 cells): 17%
CCCCCCCCCOc1ccc2[nH]cc(CCN)c2c1 [5-Nonyloxytryptamine]		-3.607 SD	-3.607 SD		4.01	114%	23.7%	-3.607	111%	4.61%	H2&S1 ave luc 1uM ([1]; luciferase assay, average of H2 and S1 cells (both ATXN2-luc), rescreen from plated libraries): 111
C/C1=C2/[N-][C@H]([C@H](CC(N)=O)[C@@]2(C)CCC(=O)NC[C@@H](C)OP(=O)([O-])O[C@H]2[C@@H](O)[C@@H](n3cnc4cc(C)c(C)cc43)O[C@@H]2CO)[C@]2(C)N=C(/C(C)=C3N=C(/C=C4N=C1[C@@H](CCC(N)=O)C\4(C)C)[C@@H](CCC(N)=O)[C@]\3(C)CC(N)=O)[C@@H](CCC(N)=O)[C@]2(C)CC(N)=O.[Co] [COBALAMINE]	126	-5.111 SD	-5.111 SD	-5.111	5.68						H2&S1 ave luc 10uM [1, 8]: 109; H2&S1 ave MTT 1uM ([2]; 1 uM compound): 115.867; H2&S1 ave MTT 10uM ([2]; 10 uM compound): 108.02; H2&S1 ave luc 1uM [4, 12]: 126; H2&S1 ave luc 10uM ([4]; average of H2 and S1 cells): 109
CC[C@H]1CN2CCc3cc(OC)c(OC)cc3[C@@H]2C[C@@H]1C[C@H]1NCCc2cc(O)c(OC)cc21.Cl.Cl.O.O.O.O.O.O.O [Cephaeline dihydrochloride heptahydrate]	16	-4.055 SD	-4.055 SD	-4.055	4.55						H2&S1 ave luc 10uM [1, 8]: 17; H2&S1 ave MTT 1uM ([2]; 1 uM compound): 59.1374; H2&S1 ave MTT 10uM ([2]; 10 uM compound): 62.1025; H2&S1 ave luc 1uM [4, 12]: 16; H2&S1 ave luc 10uM ([4]; average of H2 and S1 cells): 17
C[C@H]1O[C@@H](O[C@H]2CC[C@]3(C=O)[C@H]4CC[C@]5(C)[C@@H](C6=CC(=O)OC6)CC[C@]5(O)[C@@H]4CC[C@]3(O)C2)C[C@H](O)[C@@H]1O [Helveticoside]		-2.733 SD	-2.733 SD		3.07	99%	37.1%	-2.733	118%	41%	AC50 ([5]; logarithm of AC50 (negative values), read-out: Log AC50 (converted)): 3.55 µM; AC50 ([5]; read-out: AC50): 3.55 µM; Efficacy ([5]; curve-fit parameter): -86.9163; Inf Activity ([5]; curve-fit parameter): -84.4727
CC(=O)O[C@H]1C[C@H](O[C@H]2[C@@H](O)C[C@H](O[C@H]3[C@@H](O)C[C@H](O[C@H]4CC[C@@]5(C)[C@H](CC[C@@H]6[C@@H]5C[C@@H](O)[C@]5(C)[C@@H](C7=CC(=O)OC7)CC[C@]65O)C4)O[C@@H]3C)O[C@@H]2C)O[C@H](C)[C@H]1O[C@@H]1O[C@H](CO)[C@@H](O)[C@H](O)[C@H]1O [LANATOSIDE C]	39					35%	35.6%		39%	15%	H2&S1 ave luc 10uM [1, 8]: 15
Nc1ccc(-c2ccc3ncc4ccc(=O)n(-c5cccc(C(F)(F)F)c5)c4c3c2)cn1 [NCGC00263216-02, torin 2]											IC50 ([6]; ATXN2-luc luciferase assays in H2 and S2 cells, 12 doses plus a zero dose, read-out: Mean IC50): 0.257 µM; min ATXN2-luc (%) ([6]; minimum ATXN2-luc signal over 12 doses, H2 and S2 cells): 25.4183%; min SC luc (%) [7]: 128.375%
CO[C@H]1[C@H](O)[C@H](O[C@H]2CC[C@@]3(C=O)[C@H](CC[C@@H]4[C@@H]3CC[C@]3(C)[C@@H](C5=CC(=O)OC5)CC[C@]43O)C2)O[C@@H](C)[C@@H]1O [PERUVOSIDE]		-4.038 SD	-4.038 SD	-4.038	4.49	47.5%	60%		15%	12%	
CC(=O)Oc1cccc(O)c1 [RESORCINOL MONOACETATE]		-6.242 SD	-6.242 SD	-6.242	6.94						viability at 1 µM [2, 9]: 115%; viability at 10 µM [2, 10]: 19.9%; activity at 1 µM [4, 12]: 120%; activity at 10 µM ([4]; average of H2 and S1 cells): 4.6%
C[C@]12CC[C@H](O)C[C@H]1CC[C@@H]1[C@@H]2[C@H](O)C[C@]2(C)[C@@H](C3=CC(=O)OC3)CC[C@]12O [SARMENTOGENIN]		-3.539 SD	-3.539 SD		3.93	45.8%	41.2%	-3.539	53%	24%	
C[C@]12CC[C@H]3[C@@H](CC[C@]4(O)C[C@@H](O)CC[C@]34C=O)[C@@]1(O)CC[C@@H]2C1=CC(=O)OC1 [STROPHANTHIDIN]			-4.451 SD	-4.451	4.95	40.1%	45.5%		16%	15%	
C[n+]1cc2c3c(ccc2c2ccc4cc5c(cc4c21)OCO5)OCO3 [Sanguinarine]		-2.689 SD	-2.689 SD		3.02	103%	114%	-2.689	127%	160%	
